Source: US6586440B2, “Pharmaceutical compositions of 5-alkynyl uracil compounds” (SmithKline Beecham Corporation, priority 1990, dated 2003)
Like-named read-outs stand apart in the source and are kept apart here.

Columns and labels:
[1] = molecular target: T1, Uracil reductase (dihydropyrimidine dehydrogenase, EC 1.3.1.2) (Bos taurus, UniProt Q28007); assay: Determination of uracil reductase inactivation; assay type: biochemical, bovine; details: for inhibition at 100 µM: 0.5 h; for relative first-order rate constants for inactivation of enzyme (parenthetical values): fractional activity as a function of time of incubation of 50 μM inactivator with enzyme
T1 construct: (dihydropyrimidine dehydrogenase, EC 1.3.1.2) purified from bovine live; from tissue; host or cells: bovine liver ('bovine live' [sic])
T1 sequence (Q28007 1-1025): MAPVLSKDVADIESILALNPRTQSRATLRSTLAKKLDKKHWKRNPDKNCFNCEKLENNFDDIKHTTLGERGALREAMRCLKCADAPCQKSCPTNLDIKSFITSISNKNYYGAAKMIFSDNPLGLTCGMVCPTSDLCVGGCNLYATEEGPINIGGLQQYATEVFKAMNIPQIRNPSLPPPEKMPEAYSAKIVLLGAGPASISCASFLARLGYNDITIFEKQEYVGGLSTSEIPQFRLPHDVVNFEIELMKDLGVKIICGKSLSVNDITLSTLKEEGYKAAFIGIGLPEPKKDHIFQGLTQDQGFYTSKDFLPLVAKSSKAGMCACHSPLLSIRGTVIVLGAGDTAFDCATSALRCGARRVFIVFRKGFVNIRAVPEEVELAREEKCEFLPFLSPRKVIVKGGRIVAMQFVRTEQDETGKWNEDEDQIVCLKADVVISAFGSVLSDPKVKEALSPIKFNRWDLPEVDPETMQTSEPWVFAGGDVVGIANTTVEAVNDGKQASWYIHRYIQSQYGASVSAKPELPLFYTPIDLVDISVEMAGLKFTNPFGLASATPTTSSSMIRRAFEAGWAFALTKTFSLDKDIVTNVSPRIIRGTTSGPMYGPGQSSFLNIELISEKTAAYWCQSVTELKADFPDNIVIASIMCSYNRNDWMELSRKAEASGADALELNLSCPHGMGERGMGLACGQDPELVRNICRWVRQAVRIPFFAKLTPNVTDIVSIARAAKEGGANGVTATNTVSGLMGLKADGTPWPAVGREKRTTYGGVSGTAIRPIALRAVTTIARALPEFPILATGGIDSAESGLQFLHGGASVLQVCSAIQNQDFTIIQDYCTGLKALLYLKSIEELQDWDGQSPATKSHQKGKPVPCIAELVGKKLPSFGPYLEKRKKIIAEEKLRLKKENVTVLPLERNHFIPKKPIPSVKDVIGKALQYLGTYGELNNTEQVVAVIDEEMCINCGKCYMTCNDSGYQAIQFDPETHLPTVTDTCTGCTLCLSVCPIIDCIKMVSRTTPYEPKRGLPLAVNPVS
Procedure: Determination of Uracil Reductase Inactivation
Uracil reductase (1 μM) (dihydropyrimidine dehydrogenase, EC 1.3.1.2) purified from bovine live was incubated with 100 μM inactivator and 5 mM dithiothreitol (enzyme reductant) at 37° for 30 minutes in 0.05 M Tris-HCL at pH 8.0. The enzyme and inactivator were diluated 100-fold into the assay buffer, which contained 200 μM NADPH, 200 μM thymine and 1 μM dithiothreitol in Tris-HCl at pH 8.0. The velocity of the enzyme was determined spectrophotometrically. These velocities have been corrected for NADPH oxidase activity, which was less than 10% of the rate of thymine-dependent oxidation of NADPH. The % inactivation of the enzyme was equal to 100% minus the percent of enzymatic activity remaining. Enzyme incubated without inhibitor was stable under these conditions. Parenthetical values are the relative first-order rate constants for inactivation of enzyme determined from similar experiments where the fractional activity was measured as a function of the time of incubation of 50 μM inactivator with enzyme.

Male mice = assay: Protection from zidovudine toxicity in mice; assay type: in vivo
Procedure: Male mice were doses p.o. with 1000 mg/kg/day of zidovudine for 30 days either alone, or 1.5 hours after dosing with 2 mg/kg/day of 5-ethynyluracil (5-EU). Other groups of mice (a) were dosed with 2 mg/kg/day of 5-ethynyluracil alone; and (b) served as controls, receiving neither zidovudine nor 5-ethynyluracil. Levels of haematocrit, haemoglobin and red blood cells were determined.

[2] = 1 μM enzyme incubated with 100 μM inactivator and 5 mM dithiothreitol, 37°, 30 minutes, pH 8.0, then diluted 100-fold into assay buffer, read-out: % Inactivation
[3] = male mice, p.o., 30 days, zidovudine 1000 mg/kg/day, 5-EU 2 mg/kg/day, given 1.5 hours before zidovudine in the combination

Row | SMILES | inhibition at 100 µM [1, 2] [%] | relative first-order rate constants for inactivation of enzyme (parenthetical values) [1] | further results
1 | O=c1[nH]cc(Br)c(=O)[nH]1 [5 -bromouracil, 5-bromouracil] |  |  | inhibition at 100 µM ([1]; pH 8, read-out: % Inactivation): 75%
2 | C=C(Cl)c1c[nH]c(=O)[nH]c1=O [5-(1-chlorovinyl)uracil] | 100 | (5) | 
3 | O=c1[nH]cc(C(Cl)=CBr)c(=O)[nH]1 [5-(2-bromo-1-chlorovinyl)uracil] | 68 |  | 
4 | O=c1[nH]cc(C#CBr)c(=O)[nH]1 [5-bromoethynyluracil] | 100 | (8) | 
5 | O=c1[nH]cc(C=CBr)c(=O)[nH]1 [5-bromovinyluracil] | 93 |  | 
6 | N#Cc1c[nH]c(=O)[nH]c1=O [5-cyanouracil] | 100 | (14) | 
7 | C#Cc1c[nH]c(=O)[nH]c1=O [5-ethynyluracil, 5-Ethynyluracil] | 100 | (100) | HEMATOCRIT (Male mice; [3]): 45.9%; HEMOGLOBIN (Male mice; [3]): 15.1 g/dL; RED BLOOD CELLS (Male mice; [3]): 9.1 million/µL; prevention of red-blood cell anaemia induced by treatment with zidovudine (Male mice; mice): at least partially prevented
8 | CCCCC#Cc1c[nH]c(=O)[nH]c1=O [5-hex-1-ynyluracil] | 90 |  | 
9 | CC#Cc1c[nH]c(=O)[nH]c1=O [5-propynyluracil, 5-Propynyluracil] | 100 | (8) | melting point: 275 to 280 °C (dec.)
10 | O=c1[nH]cc(C(F)(F)F)c(=O)[nH]1 [5-trifluorouracil] |  |  | % Inactivation ([1]; 1 μM enzyme incubated with 100 μM inactivator and 5 mM dithiothreitol, 37°, 30 minutes, pH 8.0, then diluted 100-fold into assay buffer): 75%
11 | C=Cc1c[nH]c(=O)[nH]c1=O [5-vinyluracil] | 86 |  | 
12 | O=c1[nH]cc(I)c(=O)[nH]1 [Example 5-iodouracil, 5-iodouracil] | 100 | (4) | 
